Reference: patent US11292803B2, “Bioreducible N-oxide-based probes for imaging of hypoxia” (THE BOARD OF TRUSTEES OF THE UNIVERSITY OF ILLINOIS, priority 2018, dated 2022)

How the values were obtained:
[1] = test system: CYP450-rich rat liver microsomes
Description: FIG. 4. […] (a) Representative PA image (770 nm) of reaction mixtures incubated under normoxic or hypoxic conditions for 2 h, then quenched with an equal volume of acetonitrile. Dashed lines indicate positioning of FEP tubes. (b) Change in PA signal (770 nm) produced after 2 h incubation of HyP-1 (10 μM) with rat liver microsomes (RLM) (200 μg/mL) and NADPH (50 μM) in normoxic and hypoxic conditions (n=3). (c) Ratiometric fluorescence turn-on after 2 h incubation of HyP-1 (2 μM) with RLM ([…]) and NADPH (50 μM) in normoxic or hypoxic conditions (n=3). (d) Normalized fluorescent turn-on after 1 h hypoxic incubation of HyP-1 (2 μM) with RLM (100 μg/mL) and NADPH (50 μM) under various conditions. Statistical significance represents a comparison to the hypoxic control (n=6). Results with error bars are represented as mean±SD. **p<0.01, ***p<0.001, ****p<0.0001.
The responsiveness of HyP-1 to hypoxia was first evaluated in vitro via fluorescence by incubating HyP-1 with CYP450-rich rat liver microsomes under atmospheric (normoxic) and oxygen-deprived (hypoxic) conditions. […] The PA response of HyP-1 under identical conditions was evaluated by quenching the reaction mixtures with an equal volume of acetonitrile and transferring the solutions into fluorinated ethylene propylene (FEP) tubes, which were inserted into the centre of a 2 cm thick agarose-based tissue-mimicking phantom.
For hypoxic assays only, cuvettes were sealed with septa, then evacuated and filled with N2 (×3) prior to use. Potassium phosphate buffer (0.1 M, pH 7.4) and NADPH (0.5 mM) were degassed with N2 for 30 minutes. For all assays, phosphate buffer (889 μL) rat liver microsomes (200 μg/mL) and HyP-1 (1 μL, 2 mM in DMSO) were added to the cuvette and pre-incubated at 37° C. for 5 minutes. NADPH (100 μL) was added and incubation continued with fluorescence spectra acquisition occurring at the indicated time points. Spectra were acquired according to the following parameters: λex=672, emission range=685-800 nm and λex=750, emission range=760-900 nm. For BIPY and DPI experiments, the compounds were added from stock solutions (1 M BIPY in DMSO and 50 mM DPI in deionized water) following the 5 minute preincubation, and the buffer volume was adjusted such that the total volume in the cuvette was equal to 1 mL. Deactivated microsomes were prepared by heating in a 45° C. water bath for 30 minutes.

[2] = PA imaging of compound solutions in tissue-mimicking phantoms; format: physicochemical; settings: solutions in tissue-mimicking phantom
Description: FIG. 3. Photophysical characterization of HyP-1 and red-HyP-1. (a) Normalized absorbance (dashed) and emission (solid) spectra of HyP-1 (left) and red-HyP-1 (right). (b) PA spectra of HyP-1 and red-HyP-1. PA images of HyP-1 and red-HyP-1 solutions (10 μM in 0.1 M potassium phosphate buffer (pH 7.4) with 50% EtOH co-solvent) in tissue-mimicking phantoms were obtained, and the mean PA signal corresponding to each compound was plotted as a function of wavelength. Results are presented as mean±SD (n=3). (c) PA signal corresponding to various concentrations of red-HyP-1. […]
The significant change in the absorbance profiles of these compounds can be attributed to disruption of the electron donating capability of the aniline in its N-oxide form. This chemical modification is akin to protonation of the aniline, which has been previously shown to result in similar shifts in the absorbance. The 90 nm separation in absorbance is essential to the probes design as it allows us to readily distinguish each species by selective excitation and subsequent detection using both PA and fluorescence imaging. […] Additionally, because HyP-1 and red-HyP-1 have spectrally resolved emission profiles, ratiometric imaging can be performed by determining the ratio of their fluorescence emission intensities. […]

[3] = Photophysical characterization (absorbance, emission, extinction coefficient, quantum yield); format: physicochemical; settings: Table 2
[4] = Chemostability under ambient light and temperature; format: physicochemical; settings: 10 μM solution, up to 5 days
Description: FIG. 11. Fluorescence intensity (Ex.=670 nm) of HyP-1 (2 μM) at the indicated time points during extended incubation in 0.1 M potassium phosphate buffer (pH 7.4, 0.1% v/v CrEL) under ambient light and temperature. Represented as mean±SD (n=3).
In addition to Fe(II), the response of HyP-1 to a variety of alkali, alkaline earth and transition metals was also determined. […] To further evaluate the stability of HyP-1, a 10 μM solution of the probe was exposed to ambient light and temperature for up to 5 days. Additionally, a 10 μM solution of HyP-1 supplemented with human plasma was incubated at 37° C. for 3 hours. […] As mentioned previously, a major limitation of 2-nitroimidazole-based hypoxia probes is their susceptibility to oxygen-independent reduction via two-electron processes, such as by bacterial nitroreductases. […] Finally, the photostability of both HyP-1 and red-HyP-1 was evaluated via continuous PA image acquisition at 770 nm over the course of 1 hour.

Row | emission maximum ([1]; authentic solution, as RLM reaction mixture (aqueous buffer)) [nm] | Structure (SMILES) | PA signal at 770 nm [2] | Φ [3] | ε [3] | λabs [3] [nm] | conversion by heat-inactivated rat liver microsomes [1] | decomposition under ambient light and temperature [4]
1 | 785 | CCN(CC)c1ccc(-c2cc(-c3ccccc3)c3n2[B-](F)(F)[N+]2=C(c4ccc(OC)cc4)C=C(c4ccccc4)C2=N3)cc1 [Red-HyP-1, 4-(5,5-difluoro-7-(4-methoxyphenyl)-1,9-diphenyl-5H-5λ^4,6λ^4-dipyrrolo[1,2-c:2′,1′-f][1,3,5,2]triazaborinin-3-yl)-N,N-diethylaniline] | strong PA signal | 0.11 | 5.4 × 10^4 M^−1 · cm^1 | 760 | – | –
2 | – | CC[N+]([O-])(CC)c1ccc(-c2cc(-c3ccccc3)c3n2[B-](F)(F)[N+]2=C(c4ccc(OC)cc4)C=C(c4ccccc4)C2=N3)cc1 [HyP-1, 4-(5,5-difluoro-7-(4-methoxyphenyl)-1,9-diphenyl-5H-5λ^4,6λ^4-dipyrrolo[1,2-c:2′,1′-f][1,3,5,2]triazaborinin-3-yl)-N,N-diethylaniline oxide] | no signal | 0.33 | 1.5 × 10^4 M^−1 · cm^1 | 670 | converted to red-HyP-1 | no substantial decomposition
